Results on 8 molecules are retold here after US6720139B1, “Genes identified as required for proliferation in Escherichia coli” (priority 1999, dated 2004).

Values after ≈ are worked out from the molar mass of the structure shown. Like-named read-outs stand apart in the source and are kept apart here. Positions of bridges follow the written chain, without caps; N, C: chain ends. Non-standard residues stand in square brackets, D forms with d. Residues, ends and D or L forms follow the SMILES beside them. *: point of attachment. Ileψ(thiazoline)Cys = CC[C@H](C)[C@H](N)C1=N[C@H](C(=O)*)CS1; dOrn = NCCC[C@@H](N)C(=O)O

Series [1] deals with E. coli cells expressing antisense RNA to rplL, rplJ, rplW or to comparison genes (elaD, visC, yohH, atpB/E). Description: Antibiotic sensitivity of cells expressing antisense RNA (Example 9). The series is classed as cell-based. The note with it: for sensitivity to erythromycin: initial experiments. From the text:
The effectiveness of the above cell based assay was validated using constructs expressing antisense RNA to E. coli genes rplL, rplJ, and rplW encoding ribosomal proteins L7/L12, L10 and L23 respectively. These proteins are part of the protein synthesis apparatus of the cell and as such are required for proliferation. These constructs were used to test the effect of antisense expression on cell sensitivity to antibiotics known to bind to the ribosome and thereby inhibit protein synthesis. Constructs expressing antisense RNA to several other genes (elaD, visC, yohH, and aptE/B), the products of which are not involved in protein synthesis were used for comparison.
First expression vectors containing antisense constructs to either rplW or to elaD were introduced into separate E. coli cell populations. Vector introduction is a technique well known to those of ordinary skill in the art. The expression vectors of this example contain IPTG inducible promoters that drive the expression of the antisense RNA in the presence of the inducer. However, those skilled in the art will appreciate that other inducible promoters may also be used. Suitable expression vectors are also well known in the art. The E. coli antisense clones encoding ribosomal proteins L7/L12, L10 and L23 were used to test the effect of antisense expression on cell sensitivity to the antibiotics known to bind to these proteins. […]
Cells were pretreated with the selected concentration of IPTG and then used to test the sensitivity of cell populations to tetracycline, erythromycin and other protein synthesis inhibitors. […] Cells were grown to log phase and then diluted into media alone or media containing IPTG at concentrations which give 20% and 50% growth inhibition as determined by IPTG dose response curves. […] The 96 well plates were incubated at 37° C. and the OD600 was read by a plate reader every 5 minutes for up to 15 hours. For each IPTG concentration and the no IPTG control, tetracycline dose response curves were determined when the control (absence of tetracycline) reached 0.1 OD600.

For series [2], the system named is bacterial strain engineered for expression of an antisense against rplL and rplJ (50S ribosomal subunit proteins). As to the kind of experiment: microbe, parasite or virus in culture. The series is classed as cell-based, E. coli. Here is the method:
A panel of test antibiotics known to act on different pathways is tested side by side with three to four wells being used to evaluate the effect of a test antibiotic on cell growth at each concentration. Equal volumes of test antibiotic and cells are added to the wells of a 384 well microtiter plate and mixed. Cells are prepared as described above using the media selected for assay development supplemented with the antibiotic required to maintain the antisense construct and are diluted 1:100 in identical media immediately prior to addition to the microtiter plate wells. For a control, cells are also added to several wells that contain the solvent used to dissolve the antibiotics but no antibiotic. Cell growth is monitored continuously by incubation at 37° C. in a microtiter plate reader monitoring the OD600 of the wells over an 18-hour period. […] A plot of percent inhibition against log[antibiotic concentration] allows extrapolation of an IC50 value for each antibiotic.
Two fold dilution series of the panel of test antibiotics used above are generated in each of these media. Several antibiotics are tested side by side with three to four wells being used to evaluate the effects of an antibiotic on cell growth at each concentration, in each media. Equal volumes of test antibiotic and cells are added to the wells of a 384 well microtiter plate and mixed. Cells are prepared as described above using the media selected for use in the assay supplemented with the antibiotic required to maintain the antisense construct. […] Immediately prior to addition to the microtiter plate wells, the cultures are adjusted to an appropriate OD600 (typically 0.002) by dilution into warm (37° C.) sterile media supplemented with identical concentrations of the inducer and antibiotic used to maintain the antisense construct. […] Cell growth is monitored continuously by incubation at 37° C. in a microtiter plate reader monitoring the OD600 of the wells over an 18-hour period. […]

The test system of a further series is E. coli. As to the kind of experiment: Inhibition of bacterial proliferation after IPTG induction of antisense clones (Example 1). The series is classed as cell-based, Escherichia coli. Conditions: 1 mM IPTG, liquid or solid medium. As to the method: To study the effects of transcriptional induction in liquid medium, growth curves were carried out by back diluting cultures 1:200 into fresh media with or without 1 mM IPTG and measuring the OD450 every 30 minutes (min). To study the effects of transcriptional induction on solid medium, 10^2, 10^3, 10^4, 10^5, 10^6, 10^7 and 10^8 fold dilutions of overnight cultures were prepared. Aliquots of from 0.5 to 3 μl of these dilutions were spotted on selective agar plates with or without 1 mM IPTG. After overnight incubation, the plates were compared to assess the sensitivity of the clones to IPTG.
Of the numerous clones tested, some clones were identified as, a containing sequence that inhibited E. coli growth after IPTG induction. Accordingly, the gene to which the inserted nucleic acid sequence corresponds, or a gene within the operon containing the inserted nucleic acid, may be required for proliferation in E. coli.

Take `CC[C@H]1OC(=O)[C@H](C)[C@@H](O[C@H]2C[C@@](C)(OC)[C@@H](O)[C@H](C)O2)[C@H](C)[C@@H](O[C@@H]2O[C@H](C)C[C@H](N(C)C)[C@H]2O)[C@](C)(O)C[C@@H](C)C(=O)[C@H](C)[C@@H](O)[C@]1(C)O` [Erythromycin]: the sensitivity to erythromycin result was “do not” in series [1] (clones expressing antisense to non-protein synthesis genes elaD, atpB/E and visC); “increased sensitivity” in series [1] (clones expressing antisense to protein synthesis genes (L7/L12 & L10, L7/L12 alone, L22, L18, rRNA, Elongation Factor G)).
Take `CCn1cc(C(=O)O)c(=O)c2ccc(C)nc21` [Nalidixic acid]: the “sensitivity to antibiotics which do not inhibit protein synthesis” value in series [1] (clone expressing antisense to rplL and rplJ) is “does not show increased sensitivity”.
`CN(C)c1ccc(O)c2c1C[C@H]1C[C@H]3[C@H](N(C)C)C(O)=C(C(N)=O)C(=O)[C@@]3(O)C(O)=C1C2=O` [Minocycline]: the IC50 (in general, the point on the concentration scale where inhibition reaches its midpoint) in series [2] (read-out: IC50 (+IPTG)) was found to be 0.0034 µg/mL (≈ 0.00743 µM).
In the case of `CC[C@H](C)[C@H](N)C1=N[C@H](C(=O)N[C@@H](CC(C)C)C(=O)N[C@H](CCC(=O)O)C(=O)N[C@H](C(=O)N[C@H]2CCCCNC(=O)[C@H](CC(N)=O)NC(=O)[C@@H](CC(=O)O)NC(=O)[C@H](Cc3cnc[nH]3)NC(=O)[C@@H](Cc3ccccc3)NC(=O)[C@H]([C@@H](C)CC)NC(=O)[C@@H](CCCN)NC2=O)[C@@H](C)CC)CS1` [Bacitracin] ({Ileψ(thiazoline)Cys}-L[dE]IK[dOrn]I[dF]H[dD]N; lactam 4-C), the results for the IC50 in series [2] (read-out: IC50 (+IPTG)) and in series [2] (read-out: IC50 (−IPTG)) were 4680 µg/mL (≈ 3290 µM) and 4080 µg/mL (≈ 2870 µM), respectively.

B1: EcXA006: identified antisense clone, gene pta (nucleic acid)
DNA: GCGCATACCCTGCAGCATCGGCCCGATGGAGATCAGGTCGGCAGAACGCTGTACCGCTTTGTAGGTGGTGTTACCGGTGNTCAGATCCGGGAAGATGAACACGGTAGCGCGACCTGCAACCGGAGAGTTCGGCGCTTTGGATTNCGCAACGTCAGCCATTACCGCAGCGTCGTACTGCAGCGGACCGGCGATCATCAGGTCA
modifications: E. Coli; misc_feature (1)...(202): n = A,T,C or G
notes: identified antisense clone, gene pta
Turning to B1, in the series with E. coli, the “E. coli growth after IPTG induction of antisense expression” value (“E. coli growth after IPTG induction” for short) is “reduction in cell growth”.

B2: EcXA053: identified antisense clone, gene gor (nucleic acid, listed as Escherichia coli)
DNA 1: TGGAGAAAACGGGTGATTGATAAAGCAATCATCGTTCTAGGGGCGTTAATTGCGCTGCTGGAACTGATCCCGCTTTCTGCTTCAAGCTTCTGAACTGGATACGGAAACGTAATNAGGGCTAAAGAAGACACTACTCTTAGCCCTTTAACATTTAACGCATTGTCACGAACTCTTCTGCCGCCGTTGGGTGAATGGCGACGGGTATTGGTCGAAATCTTTTTTGGGTGGCCCCATCTTTAACGCCCACCCGCGAAACCCTGCAACATTTCGTC
DNA 2: TGGAGAAAACGGGTGATTGATAAAGCAATCATCGTTCTAGGGGCGTTAATTGCGCTGCTGGAACTGATCCGCTTTCTGCTTCAGCTTCTGAACTGATAGCGGAAACGTAATTAAGGGCTAAGAGCACACTACTCTTAGCCCTTTAACATTTAACGCATTGTCACGAACTCTTCTGCCGCCGTTGGGTGAATGGCGACGGTATTGTCGAAGTCTTTTTTGGTTGCCCCCATCTTCAGCGCCACCGCGAAGCCCTGCAACATTTCGTC
modifications: E. Coli; misc_feature (1)...(272): n = A,T,C or G
notes: identified antisense clone, gene gor
With B2, the “E. coli growth after IPTG induction” value with E. coli is on record as “reduction in cell growth”.

B3: EcXA044: identified antisense clone, gene purB (nucleic acid)
DNA: TTAATTATTAAAATAGTGTAACGCGATTATGTGGTTATGGGGGTAAACATTAAATAAACCAGCGGGGAGGGGAGGTAAAGTGAAAAAATAAAAAGCGGATAATCTTAATAAGCAGGCCGGACAGCATCGCCATCCGGCACTGATACGAGGTTTATTTCAGCTCATCAACCATCG
modifications: E. Coli
notes: identified antisense clone, gene purB
With B3, the “E. coli growth after IPTG induction” value in the series on E. coli is recorded as “reduction in cell growth”.

B4: EcXA046: identified clone corresponding to an intergenic sequence, fimE, fimA (nucleic acid)
DNA: TTTGTTGGCTTAATATTCTATTGTTATCTTTATTTATAGATGTTTATATTGCATGAGGTGGTTTTTGGAGAGAAGAATGAGGAAGATGCGTCGAGCCACAGAAACGTTAGCTTTACATATAGCGGAGGTGATGTGAATTTAATTTACAATAGAAATAATTTACATATCAAACAGTTAGATGCTTTTTGTCG
modifications: E. Coli
As for B4, in the series with E. coli, the “E. coli growth after IPTG induction” value is “reduction in cell growth”.
